Reference: ChEMBL document CHEMBL5143634, “Design, synthesis, and anti-influenza A virus activity evaluation of novel indole containing derivatives of triazole” (Bioorg Med Chem Lett, 2022)
pIC50: −log10 of the molar value.

Tests used:
[1] = Cytotoxicity against human HEK293T cells assessed as cell viability after 48 hrs by CCK-8 assay; type: toxicity, cell-based, HEK-293T
[2] = Selectivity index, ratio of CC50 for human HEK293T cells to IC50 for antiviral activity against Influenza A virus A/WSN/33 (H1N1) infected in HEK293T cells; type: toxicity, cell-based; conditions: read-out: Ratio CC50/IC50
Influenza A virus [3] = experiment: Antiviral activity against Influenza A virus A/WSN/33 (H1N1) infected in HEK293T cells at 10 uM by Gaussia luciferase reporter assay; type: functional; conditions: HEK-293T
Influenza A virus [4] = experiment: Antiviral activity against Influenza A virus A/WSN/33 (H1N1) infected in HEK293T cells by Gaussia luciferase reporter assay; type: functional, organism-based; conditions: HEK-293T

SMILES | CC50 at 48 h [1] | selectivity ratio [2] | inhibition at 10 µM (Influenza A virus [3]) | pIC50 (Influenza A virus [4])
Cn1cc(SCc2nnc(SCc3ccccc3OC(F)(F)F)n2-c2c(Cl)cccc2Cl)c2ccccc21 | > 100 µM | > 70.9 | > 50% | 5.85
Cn1cc(SCc2nnc(SCc3ccc(Cl)c(F)c3)n2-c2c(Cl)cccc2Cl)c2ccccc21 | > 100 µM | > 14 | > 50% | 5.15
Cn1cc(SCc2nnc(SCc3ccccc3Cl)n2-c2c(Cl)cccc2Cl)c2ccccc21 | 49.6 µM | 6.65 | > 50% | 5.13
Cn1cc(SCc2nnc(SCc3cccc(Cl)c3F)n2-c2c(Cl)cccc2Cl)c2ccccc21 | > 100 µM | > 23.8 | > 50% | 5.38
Cn1cc(SCc2nnc(SCc3ccc(Cl)cc3F)n2-c2c(Cl)cccc2Cl)c2ccccc21 | 87.3 µM | 7.67 | > 50% | 4.94
Cn1cc(SCc2nnc(SCc3cc(Cl)ccc3F)n2-c2c(Cl)cccc2Cl)c2ccccc21 | > 100 µM | > 35.3 | > 50% | 5.55
Cn1cc(SCc2nnc(SCc3cccc(Cl)c3Cl)n2-c2c(Cl)cccc2Cl)c2ccccc21 | > 100 µM | > 46.7 | > 50% | 5.67
Cn1cc(SCc2nnc(SCc3ccccc3C#N)n2-c2c(Cl)cccc2Cl)c2ccccc21 | 78.6 µM | 24.7 | > 50% | 5.50
Cn1cc(SCc2nnc(SCc3ccc(Cl)cc3Cl)n2-c2c(Cl)cccc2Cl)c2ccccc21 | > 100 µM | > 16.2 | > 50% | 5.21
Cn1cc(SCc2nnc(SCc3cc(Cl)ccc3Cl)n2-c2c(Cl)cccc2Cl)c2ccccc21 | > 100 µM | > 19.5 | > 50% | 5.29
Cn1cc(SCc2nnc(S)n2-c2c(Cl)cccc2Cl)c2ccccc21 | > 100 µM | > 67.6 | > 50% | 5.83
Cn1cc(SCc2nnc(SCc3c(F)cccc3Cl)n2-c2c(Cl)cccc2Cl)c2ccccc21 | > 100 µM | > 25.4 | > 50% | 5.40
Cn1cc(SCc2nnc(SCc3ccc(OC(F)(F)F)c(Cl)c3)n2-c2c(Cl)cccc2Cl)c2ccccc21 | 77.7 µM | 10.4 | > 50% | 5.13
Cn1cc(SCc2nnc(SCc3cc(C(F)(F)F)ccc3Cl)n2-c2c(Cl)cccc2Cl)c2ccccc21 | 53.8 µM | 10.6 | > 50% | 5.29
Cn1cc(SCc2nnc(SCc3ccc(Cl)cc3C(F)(F)F)n2-c2c(Cl)cccc2Cl)c2ccccc21 | 56.5 µM | 21.8 | > 50% | 5.59
CCOC(=O)c1c(CSc2nnc(CSc3cn(C)c4ccccc34)n2-c2c(Cl)cccc2Cl)n(C)c2cc(Br)c(OC(C)=O)cc12 | > 100 µM | > 44 | > 50% | 5.64
Cn1cc(SCc2nnc(SCc3ccccc3)n2-c2c(Cl)cccc2Cl)c2ccccc21 | > 100 µM | > 74.6 | > 50% | 5.87
Cn1cc(SCc2nnc(SCc3c(Cl)cccc3Cl)n2-c2c(Cl)cccc2Cl)c2ccccc21 | > 100 µM | > 11 | > 50% | 5.04
NC(=O)c1ncn([C@@H]2O[C@H](CO)[C@@H](O)[C@H]2O)n1 [RIBAVIRIN] | > 100 µM | – | – | 4.56
